Reference: patent publication EP2650284A1, “Heterocyclic derivatives as metabotropic glutamate receptor modulators” (Merz Pharma GmbH & Co. KGaA, priority 2012, dated 2013)

Biological target: T1, mGluR5 receptors (Rattus norvegicus, UniProt P31424)
T1 construct: Primary astrocyte cultures are prepared from cortices of newborn rats; endogenous in cells; host or cells: primary cortical astrocytes from Sprague-Dawley rat pups (2-4 d old)
Test: Cytosolic calcium studies with astrocytes (FLIPR), functional assay of mGluR5 receptors
Format: cell-based
Details: for EC50: Table A1, positive modulators, fixed concentration of quisqualate (normally 10-30 nM), read-out: rEC50
Method in brief: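 Rat cortical primary astrocytes at 14-15 DIV, loaded with Ca-sensitive dye for 2 h at RT, pH 7.3 buffer; FLIPR fluorescence after L-quisqualate (100 nM), antagonists pre-incubated 10 min. PAMs: quisqualate curves ± 10 µM modulator, or modulator curves at fixed 10-30 nM quisqualate. Max-min responses as % control, logistic fit.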

[1] = Table A3 (SAMs / very weak PAMs), quisqualate EC50 shift with 10 µM modulator
[2] = Table A1, left shift of quisqualate EC50 in the presence and absence of 10 µM modulator

T1 sequence (P31424 21-1203): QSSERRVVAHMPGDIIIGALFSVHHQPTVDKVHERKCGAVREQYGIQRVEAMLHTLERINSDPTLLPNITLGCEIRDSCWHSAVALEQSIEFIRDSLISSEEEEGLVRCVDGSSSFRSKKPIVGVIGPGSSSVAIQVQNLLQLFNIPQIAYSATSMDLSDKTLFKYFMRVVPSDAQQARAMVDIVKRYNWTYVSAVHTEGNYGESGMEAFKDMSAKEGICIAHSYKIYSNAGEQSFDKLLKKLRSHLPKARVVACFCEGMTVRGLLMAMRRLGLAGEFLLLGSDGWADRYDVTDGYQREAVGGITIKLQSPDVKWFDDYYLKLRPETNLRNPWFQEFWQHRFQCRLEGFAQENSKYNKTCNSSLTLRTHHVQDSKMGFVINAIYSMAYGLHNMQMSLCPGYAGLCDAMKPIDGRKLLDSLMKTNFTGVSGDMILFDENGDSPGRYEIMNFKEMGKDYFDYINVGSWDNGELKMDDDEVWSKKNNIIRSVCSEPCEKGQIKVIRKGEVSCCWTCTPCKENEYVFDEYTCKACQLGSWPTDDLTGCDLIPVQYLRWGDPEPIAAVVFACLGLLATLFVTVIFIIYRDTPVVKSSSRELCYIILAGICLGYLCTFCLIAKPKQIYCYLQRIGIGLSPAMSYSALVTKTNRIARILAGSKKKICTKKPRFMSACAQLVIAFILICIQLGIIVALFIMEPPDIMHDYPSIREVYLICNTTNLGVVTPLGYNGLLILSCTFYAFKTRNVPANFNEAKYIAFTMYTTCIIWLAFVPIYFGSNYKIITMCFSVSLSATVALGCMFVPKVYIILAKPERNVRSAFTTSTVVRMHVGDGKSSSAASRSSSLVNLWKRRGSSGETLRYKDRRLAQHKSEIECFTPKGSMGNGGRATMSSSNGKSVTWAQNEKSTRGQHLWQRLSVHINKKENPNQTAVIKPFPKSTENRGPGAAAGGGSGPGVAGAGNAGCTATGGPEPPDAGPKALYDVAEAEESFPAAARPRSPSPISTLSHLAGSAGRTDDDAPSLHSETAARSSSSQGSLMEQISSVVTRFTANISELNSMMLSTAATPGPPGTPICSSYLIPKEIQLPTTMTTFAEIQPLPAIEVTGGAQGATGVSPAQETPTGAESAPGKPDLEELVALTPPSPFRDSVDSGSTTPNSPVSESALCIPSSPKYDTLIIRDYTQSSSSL

Compound	r left shift [1]	r left shift [2]	EC50
CCCN1CC2(CCCc3ncc(C#Cc4cccc(C)c4)cc32)OC1=O (racemic) [Example 64, (rac)-3-Propyl-3'-(m-tolylethynyl)-7',8'-dihydro-6'H-spiro[oxazolidine-5,5'-quinolin]-2-one]	0.9-fold	–	–
CC(C)C(=O)N1CCc2ncc(C#Cc3ccccc3)cc2C1 [Example 33, 2-Methyl-1-(3-(phenylethynyl)-7,8-dihydro-1,6-naphthyridin-6(5H)-yl)propan-1-one]	1.3-fold	–	–
CCCN1CCO[C@@H]2c3cc(C#Cc4cccc(C)c4)cnc3CC[C@@H]21 (racemic) [Example 21, (rac)-cis-4-Propyl-9-(m-tolylethynyl)-3,4,4a,5,6,10b-hexahydro-2H-[1,4]oxazino[2,3-f]quinoline]	1.9-fold	–	–
CCOC(=O)N1CCc2ncc(C#Cc3ccccc3)cc2C1 [Example 40, Ethyl 3-(phenylethynyl)-7,8-dihydro-1,6-naphthyridine-6(5H)-carboxylate]	1.6-fold	–	–
CCCN1CCO[C@@H]2c3cc(C#Cc4ccccc4)cnc3CC[C@@H]21 (single isomer, unassigned) [Example 17, cis-9-(Phenylethynyl)-4-propyl-3,4,4a,5,6,10b-hexahydro-2H-[1,4]oxazino[2,3-f]quinoline]	3.5-fold	3.5-fold	67 nM

Continued, values first:

r left shift [1]	r left shift [2]	EC50	Compound
1.3-fold	–	–	CCCN1CC2(CCCc3ncc(C#Cc4cccc(F)c4)cc32)OC1=O (racemic) [Example 66, (rac)-3'-((3-Fluorophenyl)ethynyl)-3-propyl-7',8'-dihydro-6'H-spiro[oxazolidine-5,5'-quinolin]-2-one]
0.8-fold	–	–	COC(=O)N1CC[C@H]2CCc3ncc(C#Cc4ccccc4)cc3[C@H]21 (racemic) [Example 29, (rac)-cis-Methyl 8-(phenylethynyl)-2,3,3a,4,5,9b-hexahydro-1H-pyrrolo[2,3-f]quinoline-1-carboxylate]
4.4-fold	4.4-fold	12.5 nM	COC1CCCc2ncc(C#Cc3ccccc3)cc21 (single isomer, unassigned) [Example 2, 5-Methoxy-3-(phenylethynyl)-5,6,7,8-tetrahydroquinoline]
